{"source": "patent US20090092661A1", "about": "“LIPOSOME COMPOSITIONS FOR IN VIVO ADMINISTRATION OF BORONIC ACID COMPOUNDS” (priority 2007, published 2009)", "key": {"[1]": {"settings": "cited from earlier work"}, "[2]": {"experiment": "Pharmacokinetics in plasma, blood and tumor of SCID mice bearing CWR22 tumors (Example 7)", "format": "in vivo", "settings": "for AUC(0-t): read-out: AUC(0-24 h)", "protocol": "Liposome formulations prepared as described herein were administered in vivo to mice. As described in Example 7, liposomes comprised of 22:0PC/mPEG-DSPE (95/5) and containing entrapped bortezomib were prepared and administered intravenously to tumor-bearing mice. A control group of mice was treated with bortezomib sold under the trade name VELCADE®, which is a mixture of bortezomib in mannitol. FIGS. 11A-11C show the concentration, in ng/mL, of bortezomib in plasma (FIG. 11A), blood (FIG. 11B) and tumor (FIG. 11C) for the drug in free form (diamonds) or entrapped in liposomes (squares).\nBlood and tumor samples were taken at various time points. The bortezomib concentrations in blood, plasma and tumor tissues were determined by LC-MS."}, "[3]": {"experiment": "Plasma pharmacokinetics in mice (another study, Table 2)", "format": "in vivo", "settings": "mouse", "protocol": "In another study, liposome-entrapped bortezomib was administered to mice and the pharmacokinetic parameters were determined. The liposomes were composed of 22:0PC/mPEG-DSPE and were prepared as described in Example 7."}, "[4]": {"settings": "male, SCID, mouse, iv, Plasma, mice, i.v. 0.8 mg/kg"}, "[5]": {"settings": "male, SCID, mouse, iv, Tumor, mice, i.v. 0.8 mg/kg"}, "[6]": {"settings": "male, SCID, mouse, iv, Whole Blood, mice, i.v. 0.8 mg/kg"}}, "note": "Like-named read-outs stand apart in the source and are kept apart here."}
{"compound": "CC(C)C[C@H](NC(=O)[C@H](Cc1ccccc1)NC(=O)c1cnccn1)B(O)O", "note": "[bortezomib]", "values": [{"measurement": "maximum tolerated dose", "setting": "[1]; intravenous bolus on days 1, 4, 8, and 11 of a 3-week cycle", "result": 1.56, "unit": "mg/m^2"}, {"measurement": "maximum tolerated dose", "setting": "[1]; patients with solid tumors, intravenously once or twice weekly", "result": 1.3, "unit": "mg/m^2"}, {"measurement": "CL(app) = dose/AUC24 h", "setting": "[2]; Whole Blood", "result": 21.5, "unit": "mL/h/kg"}, {"measurement": "clearance", "setting": "[2]; male, SCID, mouse, intravenous, 0.8 mg/kg, Plasma, estimated using T½α phase, read-out: CL-obs (converted)", "result": 0.222, "unit": "mL/min/kg"}, {"measurement": "Vd", "setting": "[2]; male, SCID, mouse, intravenous, 0.8 mg/kg, Plasma, estimated using T½α phase, read-out: Vss-obs", "result": 0.0427, "unit": "L/kg"}, {"measurement": "Cmax", "setting": "[2]; [4]", "result": 23500, "unit": "ng/mL"}, {"measurement": "AUC(0-t)", "setting": "[2]; [4]", "result": 59800, "unit": "ng·h/mL"}, {"measurement": "half-life", "setting": "[2]; male, SCID, mouse, iv, Plasma, mice, i.v. 0.8 mg/kg, read-out: T1/2(α) (converted)", "result": 162, "unit": "min"}, {"measurement": "Cmax", "setting": "[2]; [5]", "result": 674, "unit": "ng/mL"}, {"measurement": "AUC(0-t)", "setting": "[2]; [5]", "result": 12800, "unit": "ng·h/mL"}, {"measurement": "Cmax", "setting": "[2]; [6]", "result": 10300, "unit": "ng/mL"}, {"measurement": "AUC(0-t)", "setting": "[2]; [6]", "result": 37200, "unit": "ng·h/mL"}, {"measurement": "concentration at 5 min", "setting": "[3]; intravenous, read-out: Conc. At 5 min.", "result": "423 ± 33.6", "unit": "ng/mL"}, {"measurement": "AUC(0-t)", "setting": "[3]; iv, read-out: AUC(0-24 h)", "result": 271, "unit": "ng·h/mL"}, {"measurement": "clearance", "setting": "[3]; iv, read-out: CL-obs (converted)", "result": 0.897, "unit": "mL/min"}, {"measurement": "Vd", "setting": "[3]; iv, read-out: Vss", "result": 0.37, "unit": "L"}]}
